# Patent US6737383B1, “Herbicidal oxadiazolidines” (priority 1999, dated 2004)
# Experiments:
# [1] = system: purple nutsedge; assay: Test B pre/postemergence purple nutsedge; assay type: in vivo, Cyperus rotundus
# How it was run: (§1)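 Response is a visual 0-to-10 score relative to untreated plants, where 0 means no effect and 10 means complete control, taken twelve to sixteen days after application. Treatments went onto soil at planting and onto foliage of 1- to 4-leaf plants, using a surfactant-containing non-phytotoxic solvent.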
# [2] = system: crabgrass; assay: Test B pre/postemergence crabgrass; assay type: in vivo, Digitaria sanguinalis
# How it was run: as §1
# [3] = system: wheat; assay: Test B pre/postemergence wheat; assay type: in vivo, Triticum aestivum
# How it was run: as §1
# [4] = system: surinam grass; assay: Test B pre/postemergence surinam grass; assay type: in vivo, Brachiaria decumbens
# How it was run: as §1
# [5] = system: duck salad; assay: Test B flood test duck salad; assay type: in vivo, Heteranthera limosa
# How it was run: (§2)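 Flood test on plants grown to the 2-leaf stage; treated plants kept in greenhouse twelve to sixteen days, then visually rated against controls on a 0 (no effect) to 10 (complete control) scale.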
# [6] = system: blackgrass; assay: Test B pre/postemergence blackgrass; assay type: in vivo, Alopecurus myosuroides
# How it was run: as §1
# [7] = system: corn; assay: Test B pre/postemergence corn; assay type: in vivo, Zea mays
# How it was run: as §1
# [8] = system: wild oat; assay: Test B pre/postemergence wild oat; assay type: in vivo, Avena fatua
# How it was run: as §1
# [9] = system: velvetleaf; assay: Test B pre/postemergence velvetleaf; assay type: in vivo, Abutilon theophrasti
# How it was run: as §1
# [10] = system: cocklebur; assay: Test B pre/postemergence cocklebur; assay type: in vivo, Xanthium strumarium
# How it was run: as §1
# [11] = system: smallflower flatsedge; assay: Test B flood test smallflower flatsedge; assay type: in vivo, Cyperus difformis
# How it was run: as §2
# [12] = system: rice; assay: Test B flood test rice; assay type: in vivo, Oryza sativa
# How it was run: as §2
# [13] = system: bedstraw; assay: Test B pre/postemergence bedstraw; assay type: in vivo, Galium aparine
# How it was run: as §1
# [14] = system: soybean; assay: Test B pre/postemergence soybean; assay type: in vivo, Glycine max
# How it was run: as §1
# [15] = system: sugar beet; assay: Test B pre/postemergence sugar beet; assay type: in vivo, Beta vulgaris
# How it was run: as §1
# [16] = system: bamyardgrass; assay: Test B flood test barnyardgrass; assay type: in vivo, Echinochloa crus-galli
# How it was run: as §2
# [17] = Postemergence, Rate 62 g/ha, scale 0 to 10, 0 is no effect, 10 is complete control
# [18] = Postemergence, Rate 250 g/ha, scale 0 to 10, 0 no effect, 10 complete control
# [19] = Preemergence, Rate 31 g/ha, visual rating, scale 0 to 10 (0 no effect, 10 complete control)
# [20] = Preemergence, Rate 62 g/ha, scale 0 to 10, 0 is no effect, 10 is complete control
# [21] = Preemergence, Rate 125 g/ha, scale 0 to 10 (0 no effect, 10 complete control)
# [22] = Preemergence, Rate 250 g/ha, scale of 0 to 10 where 0 is no effect and 10 is complete control
# [23] = Rate 31 g/ha, Postemergence, scale 0 to 10
# [24] = Rate 125 g/ha, Postemergence, scale 0 to 10, 0 no effect, 10 complete control
# [25] = Rate 31 g/ha, Postemergence section (flood test species), scale 0 to 10
# [26] = Rate 125 g/ha, Postemergence section (flood test species), scale 0 to 10, 0 no effect, 10 complete control
# [27] = flood test, listed under Postemergence, Rate 250 g/ha, scale 0 to 10, 0 no effect, 10 complete control
compound,measurement,setting,value
CC(C)N(C(=O)n1oc(=O)n(-c2ccc(F)cc2F)c1=O)c1ccc(F)cc1F [Compound 22],Nutsedge plant response rating,[1]; [17],0
same,Nutsedge plant response rating,[1]; [18],0
same,Nutsedge plant response rating,[1]; [19],0
same,"Plant response rating, Nutsedge",[1]; [20],0
same,"Plant response rating, Nutsedge",[1]; [21],0
same,"Plant response rating, Nutsedge",[1]; [22],0
same,Nutsedge plant response rating,[1]; [23],0
same,Nutsedge plant response rating,[1]; [24],0
same,Crabgrass plant response rating,[2]; [17],0
same,Crabgrass plant response rating,[2]; [18],9
same,Crabgrass plant response rating,[2]; [19],3
same,"Plant response rating, Crabgrass",[2]; [20],3
same,"Plant response rating, Crabgrass",[2]; [21],4
same,"Plant response rating, Crabgrass",[2]; [22],8
same,Crabgrass plant response rating,[2]; [23],0
same,Crabgrass plant response rating,[2]; [24],4
same,Wheat plant response rating,[3]; [17],0
same,Wheat plant response rating,[3]; [18],0
same,Wheat plant response rating,[3]; [19],0
same,"Plant response rating, Wheat",[3]; [20],0
same,"Plant response rating, Wheat",[3]; [21],0
same,"Plant response rating, Wheat",[3]; [22],0
same,Wheat plant response rating,[3]; [24],0
same,B. signalgrass plant response rating,[4]; [17],0
same,B. signalgrass plant response rating,[4]; [18],2
same,B. signalgrass plant response rating,[4]; [19],0
same,"Plant response rating, B. signalgrass",[4]; [20],0
same,"Plant response rating, B. signalgrass",[4]; [21],2
same,"Plant response rating, B. signalgrass",[4]; [22],4
same,B. signalgrass plant response rating,[4]; [23],0
same,B. signalgrass plant response rating,[4]; [24],0
same,Ducksalad plant response rating,[5]; [17],0
same,Ducksalad plant response rating,[5]; [25],0
same,Ducksalad plant response rating,[5]; [26],0
same,Ducksalad plant response rating,[5]; [27],0
same,Blackgrass plant response rating,[6]; [17],1
same,Blackgrass plant response rating,[6]; [18],3
same,Blackgrass plant response rating,[6]; [19],0
same,"Plant response rating, Blackgrass",[6]; [20],0
same,"Plant response rating, Blackgrass",[6]; [21],4
same,"Plant response rating, Blackgrass",[6]; [22],6
same,Blackgrass plant response rating,[6]; [23],0
same,Blackgrass plant response rating,[6]; [24],1
same,Corn plant response rating,[7]; [17],0
same,Corn plant response rating,[7]; [18],0
same,Corn plant response rating,[7]; [19],0
same,"Plant response rating, Corn",[7]; [20],0
same,"Plant response rating, Corn",[7]; [21],0
same,"Plant response rating, Corn",[7]; [22],2
same,Corn plant response rating,[7]; [23],0
same,Corn plant response rating,[7]; [24],0
same,Wild oats plant response rating,[8]; [17],0
same,Wild oats plant response rating,[8]; [18],1
same,Wild oats plant response rating,[8]; [19],0
same,"Plant response rating, Wild oats",[8]; [21],0
same,"Plant response rating, Wild oats",[8]; [22],0
same,Wild oats plant response rating,[8]; [24],0
same,Velvetleaf plant response rating,[9]; [17],0
same,Velvetleaf plant response rating,[9]; [18],0
same,Velvetleaf plant response rating,[9]; [19],0
same,"Plant response rating, Velvetleaf",[9]; [20],0
same,"Plant response rating, Velvetleaf",[9]; [21],0
same,"Plant response rating, Velvetleaf",[9]; [22],1
same,Velvetleaf plant response rating,[9]; [24],0
same,Cocklebur plant response rating,[10]; [17],0
same,Cocklebur plant response rating,[10]; [18],0
same,Cocklebur plant response rating,[10]; [19],0
same,"Plant response rating, Cocklebur",[10]; [20],0
same,"Plant response rating, Cocklebur",[10]; [21],0
same,"Plant response rating, Cocklebur",[10]; [22],0
same,Cocklebur plant response rating,[10]; [23],0
same,Cocklebur plant response rating,[10]; [24],0
same,S. Flatsedge plant response rating,[11]; [17],0
same,S. Flatsedge plant response rating,[11]; [26],0
same,S. Flatsedge plant response rating,[11]; [27],4
same,Rice plant response rating,[12]; [17],0
same,Rice plant response rating,[12]; [25],0
same,Rice plant response rating,[12]; [26],0
same,Rice plant response rating,[12]; [27],0
same,Bedstraw plant response rating,[13]; [17],1
same,Bedstraw plant response rating,[13]; [18],4
same,Bedstraw plant response rating,[13]; [19],0
same,"Plant response rating, Bedstraw",[13]; [20],0
same,"Plant response rating, Bedstraw",[13]; [21],0
same,"Plant response rating, Bedstraw",[13]; [22],4
same,Bedstraw plant response rating,[13]; [23],0
same,Bedstraw plant response rating,[13]; [24],2
same,Soybean plant response rating,[14]; [17],3
same,Soybean plant response rating,[14]; [18],4
same,Soybean plant response rating,[14]; [19],0
same,"Plant response rating, Soybean",[14]; [20],0
same,"Plant response rating, Soybean",[14]; [21],0
same,"Plant response rating, Soybean",[14]; [22],0
same,Soybean plant response rating,[14]; [24],3
same,Sugarbeets plant response rating,[15]; [17],0
same,Sugarbeets plant response rating,[15]; [18],0
same,Sugarbeets plant response rating,[15]; [19],0
same,"Plant response rating, Sugarbeets",[15]; [20],0
same,"Plant response rating, Sugarbeets",[15]; [21],4
same,"Plant response rating, Sugarbeets",[15]; [22],7
same,Sugarbeets plant response rating,[15]; [24],0
same,Barnyardgrass plant response rating,[16]; [17],0
same,Barnyardgrass plant response rating,[16]; [25],0
same,Barnyardgrass plant response rating,[16]; [26],0
same,Barnyardgrass plant response rating,[16]; [27],0
